Data reported in the supplement of paper PMC5908809.

How the values were obtained:
NK-92 (IL-2 2.5 ng/mL) [1] = test: drug sensitivity score (DSS) (DSS units); higher = more sensitive; extreme values may be limits of the assay; conditions: 72 h
[2] = system: normal primary NK cells, pool 1 (3 donors) (IL-2 2.5 ng/mL); test: as above; conditions: 72 h
[3] = system: normal primary NK cells, pool 3 (3 donors) (IL-2 2.5 ng/mL); test: as above; conditions: 72 h
IMC-1 (IL-2 20 ng/mL) [4] = test: as above; conditions: 72 h
[5] = system: normal primary NK cells, pool 2 (3 donors) (IL-2 2.5 ng/mL); test: as above; conditions: 72 h
NKL (IL-2 2.5 ng/mL) [6] = test: as above; conditions: 72 h
KAI3 (IL-2 2.5 ng/mL) [7] = test: as above; conditions: 72 h
[8] = system: normal primary NK cells, pool 1 (3 donors), resting (IL-2 0 ng/mL); test: as above; conditions: 72 h
SNK-6 (IL-2 2.5 ng/mL) [9] = test: as above; conditions: 72 h
DERL-7 (IL-2 2.5 ng/mL) [10] = test: as above; conditions: 72 h
YT (IL-2 2.5 ng/mL) [11] = test: as above; conditions: 72 h
NK-YS (IL-2 2.5 ng/mL) [12] = test: as above; conditions: 72 h
KHYG-1 (IL-2 2.5 ng/mL) [13] = test: as above; conditions: 72 h
NK-92 (IL-2 2.5 ng/mL) [14] = test: percent inhibition of viability; higher = more inhibition; conditions: 72 h
[15] = system: normal primary NK cells, pool 1 (3 donors) (IL-2 2.5 ng/mL); test: as above; conditions: 72 h
[16] = system: normal primary NK cells, pool 3 (3 donors) (IL-2 2.5 ng/mL); test: as above; conditions: 72 h
IMC-1 (IL-2 20 ng/mL) [17] = test: as above; conditions: 72 h
[18] = system: normal primary NK cells, pool 2 (3 donors) (IL-2 2.5 ng/mL); test: as above; conditions: 72 h
NKL (IL-2 2.5 ng/mL) [19] = test: as above; conditions: 72 h
KAI3 (IL-2 2.5 ng/mL) [20] = test: as above; conditions: 72 h
[21] = system: normal primary NK cells, pool 1 (3 donors), resting (IL-2 0 ng/mL); test: as above; conditions: 72 h
SNK-6 (IL-2 2.5 ng/mL) [22] = test: as above; conditions: 72 h
DERL-7 (IL-2 2.5 ng/mL) [23] = test: as above; conditions: 72 h
YT (IL-2 2.5 ng/mL) [24] = test: as above; conditions: 72 h
NK-YS (IL-2 2.5 ng/mL) [25] = test: as above; conditions: 72 h
KHYG-1 (IL-2 2.5 ng/mL) [26] = test: as above; conditions: 72 h
[27] = system: normal NK cells expanded with K562-aAPC; test: as above; conditions: 72 h, IL-2 2.5 ng/mL
Protocol: (§1)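 Drug sensitivity and resistance testing on K562-aAPC-expanded normal NK cells: 5 concentrations (10-fold steps over a 10,000-fold range), 72 h at 37 °C, viability by CellTiter-Glo normalised to DMSO and benzethonium chloride controls; DSS from the fitted curve.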

[28] = system: normal NK cells expanded with K562-aAPC; test: drug sensitivity score (DSS) (DSS units); higher = more sensitive; extreme values may be limits of the assay; conditions: 72 h; IL-2 2.5 ng/mL
Protocol: as §1

CC(=O)NCC(=O)N1[C@@H]2CC[C@H]1c1ccc(Nc3ncc(C(F)(F)F)c(NC4CCC4)n3)cc12 (max concentration tested 10000 nM)
Conditions | drug sensitivity score
DERL-7 (IL-2 2.5 ng/mL) [10] | 27.3
IMC-1 (IL-2 20 ng/mL) [4] | 24.2
KAI3 (IL-2 2.5 ng/mL) [7] | 22.9
KHYG-1 (IL-2 2.5 ng/mL) [13] | 28.7
NK-92 (IL-2 2.5 ng/mL) [1] | 22.1
NK-YS (IL-2 2.5 ng/mL) [12] | 21.9
NKL (IL-2 2.5 ng/mL) [6] | 22.5
SNK-6 (IL-2 2.5 ng/mL) [9] | 31
YT (IL-2 2.5 ng/mL) [11] | 15.1
[2] | 11
[3] | 10
[5] | 12
[8] | 3.63
[28] | 24.6

percent inhibition of viability [%]
Conditions | 1 nM | 10 nM | 100 nM | 1000 nM | 10000 nM
DERL-7 (IL-2 2.5 ng/mL) [23] | -3.49 | 2.07 | 76.5 | 79.7 | 101
IMC-1 (IL-2 20 ng/mL) [17] | 1.14 | -0.36 | 54.2 | 92.5 | 102
KAI3 (IL-2 2.5 ng/mL) [20] | 2 | 18.3 | 49.2 | 85 | 103
KHYG-1 (IL-2 2.5 ng/mL) [26] | 5.24 | 7.98 | 82.5 | 103 | 105
NK-92 (IL-2 2.5 ng/mL) [14] | -9.89 | 2.73 | 54 | 76.7 | 104
NK-YS (IL-2 2.5 ng/mL) [25] | -3.49 | 7.45 | 62.7 | 65.7 | 102
NKL (IL-2 2.5 ng/mL) [19] | -9.97 | 18.8 | 54.1 | 75 | 104
SNK-6 (IL-2 2.5 ng/mL) [22] | 9.63 | 33.2 | 82.6 | 85.3 | 98.7
YT (IL-2 2.5 ng/mL) [24] | 3.79 | 9.48 | 23.2 | 62.2 | 103
[15] | 4.9 | -3.44 | 17 | 44.7 | 98.1
[16] | -18.1 | -9.96 | 2.88 | 33.6 | 97.8
[18] | -12.8 | 1.36 | 16.8 | 50.3 | 96.5
[21] | -11.5 | -16.5 | -21.3 | -42.6 | 91.9
[27] | -3.83 | 6.05 | 58.2 | 91 | 101

CC(C)Oc1ccc(C(=O)N[C@H](CNC(=O)CN(C)C)Cc2ccc(-c3cn4cccc([C@H](C)O)c4n3)cc2)cc1Cl (max concentration tested 10000 nM)
Conditions | drug sensitivity score
DERL-7 (IL-2 2.5 ng/mL) [10] | 25.9
IMC-1 (IL-2 20 ng/mL) [4] | 18.9
KAI3 (IL-2 2.5 ng/mL) [7] | 15.1
KHYG-1 (IL-2 2.5 ng/mL) [13] | 23.1
NK-92 (IL-2 2.5 ng/mL) [1] | 20.2
NK-YS (IL-2 2.5 ng/mL) [12] | 24.4
NKL (IL-2 2.5 ng/mL) [6] | 25.3
SNK-6 (IL-2 2.5 ng/mL) [9] | 27.8
YT (IL-2 2.5 ng/mL) [11] | 27.8
[2] | 0.98
[3] | 2.31
[5] | 2.26
[8] | 1.92
[28] | 13.2

percent inhibition of viability [%]
Conditions | 1 nM | 10 nM | 100 nM | 1000 nM | 10000 nM
DERL-7 (IL-2 2.5 ng/mL) [23] | 3.17 | 0.65 | 70.1 | 99.2 | 98.2
IMC-1 (IL-2 20 ng/mL) [17] | -5.65 | 4.24 | 8.53 | 95.8 | 99.2
KAI3 (IL-2 2.5 ng/mL) [20] | -6.47 | -5.43 | 37.5 | 53.3 | 103
KHYG-1 (IL-2 2.5 ng/mL) [26] | -0.23 | 3.89 | 37.2 | 105 | 106
NK-92 (IL-2 2.5 ng/mL) [14] | 0.16 | 3.89 | 18.2 | 96.7 | 106
NK-YS (IL-2 2.5 ng/mL) [25] | -1.16 | 1.87 | 67.4 | 78.2 | 89.7
NKL (IL-2 2.5 ng/mL) [19] | 2.24 | 7.12 | 66.4 | 93.5 | 91.1
SNK-6 (IL-2 2.5 ng/mL) [22] | 1.52 | 24 | 74.4 | 84.6 | 89.7
YT (IL-2 2.5 ng/mL) [24] | 1.62 | 7.48 | 76.3 | 101 | 104
[15] | -2.11 | -10.1 | 1.46 | -2.94 | 28.1
[16] | -8.24 | -2.71 | 16.4 | 4.47 | 33.7
[18] | -5.03 | 7.38 | 7.4 | 6.97 | 31
[21] | -16.4 | -27 | -21.3 | -33.1 | 54.9
[27] | 5.14 | 3.61 | 10.7 | 62 | 88.4
